Tests used:
P-gp [1] = target: T1, P-gp (Homo sapiens, UniProt P08183); experiment: Rhodamine 123 accumulation assay in MCF-7/ADR cells; assay type: cell-based; settings: 4 h compound, then 5.25 μM Rho123 30 min
T1 construct: endogenous in cells; host or cells: MCF-7/ADR (Adriamycin-resistant human breast cancer cells)
Method: Furthermore, the reversion of P-gp mediated multidrug resistance may be achieved by down-regulation of P-gp expression and or inhibition of P-gp efflux function.
Briefly, resistant cancer cells were harvested, washed twice, and counted. […] of each well was measured using Spectramax Gemini fluorescence microplate reader (Molecular Devices, Sunnyvale, CA). The total content of Rhodamine in each sample was determined by comparison with a Rhodamine standard curve.

HepG-2 = experiment: MTT cell viability assay, HepG-2; assay type: cell-based; settings: Homo sapiens, HepG2, 24 h incubation, mean ± standard error
Source text: (§1) According to previous reports regarding the cytotoxic features of a numerous array of benzochromene scaffolds, compounds 4a − z have been elected to explore their cytotoxic ability against three tumour cell lines, including HCT-116 (colon cancer), MCF-7 (breast cancer), and HepG-2 (hepatocellular cancer), and employing the 3–(4,5-dimethylthiazol-2-yl)-2,5-diphenyl tetrazolium bromide (MTT) colorimetric assay as described in literature. Judges choice of such cell lines has been stimulated by the acknowledged antitumor performance of a substantial number of 1H-benzo[f]chromene and 4H-benzo[h]chromene molecules towards the asserted cell lines. […] Moreover, benzochromene derivatives with highly cytotoxic behaviour, 4a − d, 4g, 4i, 4k, 4n, 4q, 4 u, and 4w, are subjected to further inspection against ADR-resistant human breast cancer cells (MCF-7/ADR) and the two normal cell lines, HFL-1 and human diploid fibroblasts (WI-38). […] Also, the results are illustrated in Table 4.
(§2) The tumour cell lines MCF-7, HepG-2, and […] were obtained from the American Type Culture Collection (ATCC, Rockville, MD). The cells were grown on RPMI-1640 medium supplemented with 10% inactivated foetal calf serum and 50 µg/mL gentamycin. The cells were maintained at 37 °C in a humidified atmosphere with 5% CO2 and were subculture two to three times a week.
(§3) The cytotoxic activity was appraised, using the 3–(4,5-dimethylthiazol-2-yl)-2,5-diphenyl-tetrazolium bromide (MTT) colorimetric assay, as reported previously[57] and ELISA assay for MCF-7/ADR[75].

WI-38 = experiment: Cytotoxicity against normal cell line WI-38; assay type: cell-based; settings: Homo sapiens, 24 h, mean ± standard error
Source text: as §1, §3

P-gp [2] = experiment: P-gp content in MCF-7/ADR cell lysate by ELISA; assay type: cell-based, human; settings: MCF-7/ADR lysate; for %Reduction of P-gp expression / IC50: 48 h; for IC50 at 48 h: human, MCF-7/ADR cells (cell lysate)
Method: P-gp pumps multiple types of drugs out of the cell, using energy generated from adenosine triphosphate (ATP), and confers MDR on cancer cells. It is one of the noteworthy problems in malignant tumour clinical therapeutics. […].
The content of P-gp in the MCF-7/ADR cell lysates after incubation with varying conc. (12.5–100 µM) of tested compounds 4b, 4c, 4d, 4q, and 4w following exposure for 48 h. was determined using commercial human P-gp ELISA Kit (MBS2506188, MyBioSource Inc., San Diego, CA). Absorption was recorded at 450 nm with a Spectramax Gemini fluorescence microplate reader (Molecular Devices, Sunnyvale, CA).

HCT-116 = experiment: MTT cell viability assay, HCT-116; assay type: cell-based; settings: Homo sapiens, 24 h incubation, mean ± standard error
Source text: as §1, §3

MCF-7/ADR = experiment: Cytotoxicity against ADR-resistant breast cancer cells; assay type: cell-based, human; settings: 24 h exposure, mean ± standard error
Source text: as §1, §3

HFL-1 = experiment: Cytotoxicity against normal cell line HFL-1; assay type: cell-based; settings: Homo sapiens, HFL1, 24 h, mean ± standard error
Source text: as §1, §3

MCF-7 = experiment: MTT cell viability assay, MCF-7; assay type: cell-based; settings: Homo sapiens, MCF7, 24 h incubation, mean ± standard error
Source text: as §1, §2, §3

MCF-7/ADR cells = experiment: Annexin V-FITC/PI apoptosis assay; assay type: cell-based, human; settings: IC50 value, 24 h, untreated cells 2%
Source text: Several lines of evidence indicate that many anticancer compounds exerted their effects by blocking the cell cycle progression, by inducing apoptosis, or the combined effect of both[67]. Also, P-gp inhibits apoptosis by preventing the release of cytochrome c which is mediated by the intrinsic mitochondrial pathway. To further assess the pivotal relation of the newly synthesised MCF-7/ADR anticancer compounds and apoptosis, phosphatidylserine (PS) translocation to the cell membrane as a marker for apoptosis was measured by the means of the Annexin V/PI double staining flow cytometric assay.
Apoptosis assay was performed with an Annexin V-FITC/PI double staining apoptosis detection kit (K101, Biovison, Milpitas, CA) using a flow cytometer. MCF-7/ADR cancer cells treated with different newly synthesised compounds (IC50 value) were harvested by trypsinization, washed twice with 4 °C PBS, and re-suspended in binding buffer. Annexin V-FITC and PI solutions were then added to stain the cells before analysis by flow cytometry A minimum of 10,000 cells per sample were acquired. Annexin V-FITC binding (FL1) and PI (FL2) were analysed using Cell Quest Pro software (BD Biosciences).

[3] = Homo sapiens, NCI/ADR-RES, 24 h

T1 sequence (P08183 whole entry): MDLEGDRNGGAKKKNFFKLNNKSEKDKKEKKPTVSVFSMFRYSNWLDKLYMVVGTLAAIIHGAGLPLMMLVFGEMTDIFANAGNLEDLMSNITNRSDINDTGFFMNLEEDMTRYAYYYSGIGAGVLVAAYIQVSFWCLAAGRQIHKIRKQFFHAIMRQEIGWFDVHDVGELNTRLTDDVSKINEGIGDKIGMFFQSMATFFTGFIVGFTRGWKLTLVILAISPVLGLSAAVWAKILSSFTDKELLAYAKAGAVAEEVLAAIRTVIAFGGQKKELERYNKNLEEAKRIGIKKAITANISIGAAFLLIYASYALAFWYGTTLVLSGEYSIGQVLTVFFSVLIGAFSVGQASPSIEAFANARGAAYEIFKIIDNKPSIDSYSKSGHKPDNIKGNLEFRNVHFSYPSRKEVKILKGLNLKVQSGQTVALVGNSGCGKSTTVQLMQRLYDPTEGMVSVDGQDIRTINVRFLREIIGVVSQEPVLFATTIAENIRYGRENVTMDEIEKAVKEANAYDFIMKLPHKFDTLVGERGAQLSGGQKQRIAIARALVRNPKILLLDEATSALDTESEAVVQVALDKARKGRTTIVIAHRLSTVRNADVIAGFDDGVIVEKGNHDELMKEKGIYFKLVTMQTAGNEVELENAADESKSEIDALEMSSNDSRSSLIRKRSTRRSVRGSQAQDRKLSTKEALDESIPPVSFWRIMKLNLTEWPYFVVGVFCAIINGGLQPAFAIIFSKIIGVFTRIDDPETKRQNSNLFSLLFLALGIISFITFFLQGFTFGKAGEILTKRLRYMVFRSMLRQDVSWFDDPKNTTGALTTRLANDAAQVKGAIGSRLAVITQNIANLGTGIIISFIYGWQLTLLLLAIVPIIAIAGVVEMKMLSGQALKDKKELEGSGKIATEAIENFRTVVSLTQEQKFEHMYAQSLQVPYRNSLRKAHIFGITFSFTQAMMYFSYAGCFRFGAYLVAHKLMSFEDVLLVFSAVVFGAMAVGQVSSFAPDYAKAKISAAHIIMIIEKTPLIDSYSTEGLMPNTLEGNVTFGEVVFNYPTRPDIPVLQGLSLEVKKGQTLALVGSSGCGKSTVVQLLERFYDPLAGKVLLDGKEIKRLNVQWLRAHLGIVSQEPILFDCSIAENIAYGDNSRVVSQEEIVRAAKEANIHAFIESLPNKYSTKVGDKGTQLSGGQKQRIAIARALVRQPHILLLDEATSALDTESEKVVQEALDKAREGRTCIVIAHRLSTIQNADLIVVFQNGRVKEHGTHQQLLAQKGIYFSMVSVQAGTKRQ

SMILES | melting point | IC50 (P-gp [1]) | IC50 (HepG-2) | IC50 (WI-38) | %Reduction of P-gp expression (P-gp [2]; Conc. 12.5 µM) | %Reduction of P-gp expression (P-gp [2]; Conc. 25 µM) | %Reduction of P-gp expression (P-gp [2]; Conc. 50 µM) | %Reduction of P-gp expression (P-gp [2]; Conc. 100 µM) | IC50 (P-gp [2]) | IC50 at 48 h (P-gp [2]) | IC50 (HCT-116) | IC50 (MCF-7/ADR) | IC50 (MCF-7/ADR; [3]) | IC50 (HFL-1) | IC50 (MCF-7) | total apoptosis (MCF-7/ADR cells)
COc1ccc2ccc3c(c2c1)C(c1ccccc1Cl)C(C#N)=C(N)O3 (centres unmarked) [4b, 3-Amino-1–(2-chlorophenyl)-9-methoxy-1H-benzo[f]chromene-2-carbonitrile] | 266 to 267 °C | 20.5 µM | 10.7 ± 0.5 µM | 66.7 ± 0.2 µM | 30% | 42% | 72% | 90% | 26.7 µM | 18.7 to 34.6 µM | 2.5 ± 0.2 µM | 13.3 ± 0.5 µM | 10.9 to 15.5 µM | 71.9 ± 0.1 µM | 11.3 ± 0.1 µM | 
COc1ccc2ccc3c(c2c1)C(c1cccc(Cl)c1)C(C#N)=C(N)O3 (centres unmarked) [4c, 3-Amino-1–(3-chlorophenyl)-9-methoxy-1H-benzo[f]chromene-2-carbonitrile] | 262 to 263 °C | 23 µM | 11 ± 0.2 µM | 61.5 ± 1.2 µM | 26% | 40% | 70% | 84% | 28.4 µM | 18.7 to 34.6 µM | 9.9 ± 0.1 µM | 10.9 ± 0.2 µM | 10.9 to 15.5 µM | 59.5 ± 1.1 µM | 8.5 ± 0.6 µM | 
COc1ccc2ccc3c(c2c1)C(c1ccc(Cl)cc1)C(C#N)=C(N)O3 (centres unmarked) [4d, 3-Amino-1–(4-chlorophenyl)-9-methoxy-1H-benzo[f]chromene-2-carbonitrile] | 257 to 258 °C | 10.6 µM | 7.2 ± 0.1 µM | 83 ± 1.1 µM | 45% | 60% | 81% | 91% |  | 13.5 µM | 1.9 ± 0.4 µM | 12.5 ± 0.3 µM | 10.9 to 15.5 µM | 77.1 ± 1.1 µM | 0.6 ± 0.2 µM | 
COc1ccc2ccc3c(c2c1)C(c1ccc(Cl)c(Cl)c1)C(C#N)=C(N)O3 (centres unmarked) [4q, 3-Amino-1–(3,4-dichlorophenyl)-9-methoxy-1H-benzo[f]chromene-2-carbonitrile] | 255 to 256 °C | 39.1 µM | 1.5 ± 0.1 µM | 72.8 ± 0.4 µM | 19% | 32% | 51% | 76% |  | 45.3 µM | 1.3 ± 0.1 µM | 13.4 ± 0.4 µM | 10.9 to 15.5 µM | 75.8 ± 0.2 µM | 2.3 ± 0.1 µM | 
COc1ccc2ccc3c(c2c1)C(c1ccc(F)cc1F)C(C#N)=C(N)O3 (centres unmarked) [4k, 3-Amino-1–(2,4-difluorophenyl)-9-methoxy-1H-benzo[f]chromene-2-carbonitrile] | 255 to 256 °C | 57.8 µM | 8.2 ± 0.6 µM | 47.3 ± 0.2 µM | 12% | 28% | 45% | 70% |  | 61.4 µM | 4.1 ± 0.2 µM | 11.5 ± 0.6 µM | 10.9 to 15.5 µM | 59.6 ± 0.1 µM | 3 ± 0.3 µM | 
COc1cccc2c1C(=O)c1c(O)c3c(c(O)c1C2=O)C[C@@](O)(C(=O)CO)C[C@@H]3O[C@H]1C[C@H](N)[C@H](O)[C@H](C)O1 [Doxorubicin, reference compound] |  |  | 1.7 ± 0.4 µM |  |  |  |  |  |  | 50.9 µM | 0.9 ± 0.02 µM |  |  |  | 0.8 ± 0.01 µM | 30%
COc1ccc2ccc3c(c2c1)C(c1ccc(OC)c(OC)c1)C(C#N)=C(N)O3 (centres unmarked) [4w, 3-Amino-1–(3,4-dimethoxyphenyl)-9-methoxy-1H-benzo[f]chromene-2-carbonitrile] | 253 to 255 °C | 25.6 µM | 52.3 ± 0.4 µM | 52.9 ± 0.3 µM | 24% | 36% | 68% | 79% | 32.4 µM | 18.7 to 34.6 µM | 6.2 ± 0.3 µM | 11.5 ± 0.6 µM | 10.9 to 15.5 µM | 47.1 ± 0.2 µM | 2.6 ± 0.5 µM | 
